Here are results for 2 compounds from patent publication US8486920B2, “Composition and method for controlling plant diseases” (priority 2008, dated 2013).

Where two headings read alike, the source gives them in different places.

This experiment relates to Pythium ultimum, pathogen of cucumber damping-off. Type of experiment: in vivo. The note with it: cucumber (Sagamihanjiro) seed treatment, 18° C., 13 days. From the text: An acetone solution of ethaboxam and an acetone solution of tolclofos-methyl were mixed to prepare mixed liquids containing ethaboxam and tolclofos-methyl in predetermined concentration. These mixed liquids were adhered on the surface of cucumber (Sagamihanjiro) seeds and allowed to stand still overnight. A plastic pot was filled with sandy soil and the seeds were disseminated on it. Then the seeds were covered with sandy soil which had been mixed with a bran medium on which Pythium ultimum, pathogen of cucumber damping-off, had been allowed to grow. They were irrigated and allowed to grow at 18° C. under humidity for 13 days, and thereafter control effect was checked.
As a comparison, acetone solutions containing ethaboxam in the predetermined concentration and acetone solutions containing tolclofos-methyl in the predetermined concentration were prepared and subjected to similar tests.
The incidence of disease was calculated by Equation 1 and the control value was calculated by Equation 2 based on the incidence of disease.
A: Incidence of disease of plant in untreated area
B: Incidence of disease of plant in treated area
E=X+Y−(X×Y)/100 “Equation 2”

Turning to `CCNc1nc(CC)c(C(=O)NC(C#N)c2cccs2)s1` (stereo not shown) [Ethaboxam], the Actual control value is, setting by setting: (ethaboxam alone 5 g ai/100 kg-seed) 25%; (ethaboxam alone 10 g ai/100 kg-seed) 58%.
Take `COP(=S)(OC)Oc1c(Cl)cc(C)cc1Cl` [tolclofos-methyl]: the Actual control value reads like this: (tolclofos-methyl alone 100 g ai/100 kg-seed) 0.0%; (tolclofos-methyl alone 200 g ai/100 kg-seed) 0.0%.
